How the values were obtained:
[1] = test system: IPOHE (Morningglory, Ivyleaf); assay: Preemergence herbicidal evaluation; type: in vivo, Ipomoea hederacea; details: rated 4-5 weeks after treatment
Method in brief: (§1)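 Scores use a 0–9 visual scale covering stand, vigor, malformation, size and chlorosis relative to controls, rated four to five weeks after treatment. Before emergence, soil-planted seeds were sprayed with compound in aqueous acetone at roughly 0.0156–0.500 kg/ha and held in the greenhouse.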

[2] = test system: SETVI (Foxtail, Green); assay: Preemergence herbicidal evaluation; type: in vivo, Setaria viridis; details: rated 4-5 weeks after treatment
Method in brief: as §1

[3] = test system: ECHORC (Watergrass (Calif.)); assay: Preemergence weed control under flooded paddy conditions; type: in vivo, Echinochloa oryzoides; details: rated 3-4 weeks after treatment
Method in brief: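 Ratings on a 0-9 visual scale cover stand, vigor, malformation, size, chlorosis and overall appearance relative to a control, taken three to four weeks post-treatment. Application was into flood water over freshly sown silt loam at roughly 0.0313 to 0.500 kg/ha.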

[4] = test system: TRZAWR (Wheat, Winter, cv Riband); assay: Postemergence herbicidal evaluation; type: in vivo, Triticum aestivum
Method in brief: (§2)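 Young plants, roughly two weeks from seeding, receive the active ingredient as a sprayed dispersion (acetone/water 50/50, 0.5% TWEEN 20) at 40 psi. Doses span about 0.0156 to 0.500 kg/ha. A visual score from 0 to 9 compares treated with control plants four to five weeks on.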

[5] = test system: MOOVA (Monochoria); assay: Preemergence weed control under flooded paddy conditions; type: in vivo, Monochoria vaginalis; details: rated 3-4 weeks after treatment
Method in brief: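 Seeds or propagules sown in silt loam kept flooded 1.5-3 cm; compounds in 50/50 acetone/water pipetted into flood water at about 0.0313 to 0.500 kg/ha. Greenhouse; visual 0-9 rating versus untreated control 3-4 weeks after treatment.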

[6] = test system: IPOHE (Morningglory, Ivyleaf); assay: Postemergence herbicidal evaluation; type: in vivo, Ipomoea hederacea
Method in brief: as §2

[7] = test system: CHEAL (Lambsquarters, Common); assay: Preemergence herbicidal evaluation; type: in vivo, Chenopodium album; details: rated 4-5 weeks after treatment
Method in brief: as §1

[8] = test system: ORYSAT (Rice, Tebonnet); assay: Preemergence herbicidal evaluation; type: in vivo, Oryza sativa, (L.) Tebonnet; details: rated 4-5 weeks after treatment
Method in brief: as §1

[9] = test system: ECHORC (Watergrass (Calif.)); assay: Postemergence weed control under flooded paddy conditions; type: in vivo, Echinochloa oryzoides; details: postemergence weeds
Method in brief: (§3)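 Flood-water application, about 0.0313–0.500 kg/ha a.i. in aqueous/acetone 50/50 v/v; water depth 1.5–3 cm throughout. Weeds 3–5 cm, rice 1.5–2.5 leaf. Greenhouse; 0–9 visual rating vs control at 3–4 wk.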

[10] = test system: TRZAWR (Wheat, Winter, cv Riband); assay: Preemergence herbicidal evaluation; type: in vivo, Triticum aestivum; details: rated 4-5 weeks after treatment
Method in brief: as §1

[11] = test system: CYPIR (Rice Flatsedge); assay: Postemergence weed control under flooded paddy conditions; type: in vivo, Cyperus iria; details: postemergence weeds
Method in brief: as §3

[12] = test system: ABUTH (Velvetleaf); assay: Postemergence herbicidal evaluation; type: in vivo, Abutilon theophrasti
Method in brief: as §2

[13] = test system: ECHCG (Barnyardgrass); assay: Preemergence herbicidal evaluation; type: in vivo, Echinochloa crus-galli; details: rated 4-5 weeks after treatment
Method in brief: as §1

[14] = Rate 0.0625 kg/ha, rated 3 to 4 weeks after treatment
[15] = rate 0.1250 kg/ha, 3-4 weeks after treatment
[16] = rate 0.2500 kg/ha, 3-4 weeks after treatment

C#CCOC(=O)CC1SC(=Nc2cc(-n3c(=O)cc(C(F)(F)F)n(C)c3=O)c(F)cc2Cl)N(CC(=O)OCC)C1=O (centres unmarked) [Compound 59, 2-{{2-Chloro-5-[3,6-dihydro-3-methyl-2,6-dioxo-4-(trifluoromethyl)-1(2H)-pyrimidinyl]-4-fluorophenyl}imino}-4-oxo-3,5-thiazolidinediacetic acid, 3-ethyl (2-propynyl) ester] was tested, and the “Preemergence herbicidal rating IPOHE” value ([1]; rate 0.0156 kg/ha) was 1.0, the “Preemergence herbicidal rating IPOHE” value ([1]; rate 0.0313 kg/ha) was 4.0 and the “Preemergence herbicidal rating IPOHE” value ([1]; rate 0.0625 kg/ha) was 8.5. For the same compound, the “Preemergence herbicidal rating IPOHE” value ([1]; rate 0.1250 kg/ha) was 9.0, the “Preemergence herbicidal rating IPOHE” value ([1]; rate 0.2500 kg/ha) was 9.0 and the “Preemergence herbicidal rating IPOHE” value ([1]; rate 0.5000 kg/ha) was 9.0. For the same compound, the “Preemergence herbicidal rating SETVI” value ([2]; rate 0.0156 kg/ha) was 0.0, the “Preemergence herbicidal rating SETVI” value ([2]; rate 0.0313 kg/ha) was 0.0 and the “Preemergence herbicidal rating SETVI” value ([2]; rate 0.0625 kg/ha) was 1.5. The “Preemergence herbicidal rating SETVI” value ([2]; rate 0.1250 kg/ha) was 8.0, the “Preemergence herbicidal rating SETVI” value ([2]; rate 0.2500 kg/ha) was 9.0 and the “Preemergence herbicidal rating SETVI” value ([2]; rate 0.5000 kg/ha) was 9.0. The “ECHORC herbicidal effect rating” value ([3]; 0.0625 kg/ha) was 4.0, the “ECHORC herbicidal effect rating” value ([3]; 0.1250 kg/ha) was 5.0 and the “ECHORC herbicidal effect rating” value ([3]; 0.2500 kg/ha) was 7.0. For the same compound, the “Postemergence herbicidal rating TRZAWR” value ([4]; Rate 0.0158 kg/ha) was 8.0, the “Postemergence herbicidal rating TRZAWR” value ([4]; Rate 0.0315 kg/ha) was 8.0 and the “Postemergence herbicidal rating TRZAWR” value ([4]; Rate 0.0630 kg/ha) was 9.0. For the same compound, the “MOOVA herbicidal effect rating” value ([5]; 0.0625 kg/ha) was 0.0, the “MOOVA herbicidal effect rating” value ([5]; 0.1250 kg/ha) was 0.0 and the “MOOVA herbicidal effect rating” value ([5]; 0.2500 kg/ha) was 9.0. The “Postemergence herbicidal rating IPOHE” value ([6]; Rate 0.0158 kg/ha) was 9.0, the “Postemergence herbicidal rating IPOHE” value ([6]; Rate 0.0315 kg/ha) was 9.0 and the “Postemergence herbicidal rating IPOHE” value ([6]; Rate 0.0630 kg/ha) was 9.0. The “Preemergence herbicidal rating CHEAL” value ([7]; rate 0.0156 kg/ha) was 9.0, the “Preemergence herbicidal rating CHEAL” value ([7]; rate 0.0313 kg/ha) was 9.0 and the “Preemergence herbicidal rating CHEAL” value ([7]; rate 0.0625 kg/ha) was 9.0. For the same compound, the “Preemergence herbicidal rating CHEAL” value ([7]; rate 0.1250 kg/ha) was 9.0, the “Preemergence herbicidal rating CHEAL” value ([7]; rate 0.2500 kg/ha) was 9.0 and the “Preemergence herbicidal rating CHEAL” value ([7]; rate 0.5000 kg/ha) was 9.0. For the same compound, the “Preemergence herbicidal rating ORYSAT” value ([8]; rate 0.0156 kg/ha) was 0.0, the “Preemergence herbicidal rating ORYSAT” value ([8]; rate 0.0313 kg/ha) was 0.0 and the “Preemergence herbicidal rating ORYSAT” value ([8]; rate 0.0625 kg/ha) was 0.5. For the same compound, the “Preemergence herbicidal rating ORYSAT” value ([8]; rate 0.1250 kg/ha) was 2.5, the “Preemergence herbicidal rating ORYSAT” value ([8]; rate 0.2500 kg/ha) was 3.5 and the “Preemergence herbicidal rating ORYSAT” value ([8]; rate 0.5000 kg/ha) was 7.0. The “Herbicidal rating ECHORC” value [9, 14] was 4.0, the “Herbicidal rating ECHORC” value [9, 15] was 5.0 and the “Herbicidal rating ECHORC” value [9, 16] was 7.0. The “Preemergence herbicidal rating TRZAWR” value ([10]; rate 0.0156 kg/ha) was 0.0, the “Preemergence herbicidal rating TRZAWR” value ([10]; rate 0.0313 kg/ha) was 0.0 and the “Preemergence herbicidal rating TRZAWR” value ([10]; rate 0.0625 kg/ha) was 0.0. The “Preemergence herbicidal rating TRZAWR” value ([10]; rate 0.1250 kg/ha) was 2.0, the “Preemergence herbicidal rating TRZAWR” value ([10]; rate 0.2500 kg/ha) was 2.0 and the “Herbicidal rating CYPIR” value [11, 14] was 0.0. The “Herbicidal rating CYPIR” value [11, 15] was 0.0, the “Herbicidal rating CYPIR” value [11, 16] was 9.0 and the “Postemergence herbicidal rating ABUTH” value ([12]; Rate 0.0158 kg/ha) was 9.0. The “Postemergence herbicidal rating ABUTH” value ([12]; Rate 0.0315 kg/ha) was 9.0, the “Postemergence herbicidal rating ABUTH” value ([12]; Rate 0.0630 kg/ha) was 9.0 and the “Preemergence herbicidal rating ECHCG” value ([13]; rate 0.0156 kg/ha) was 0.0. The “Preemergence herbicidal rating ECHCG” value ([13]; rate 0.0313 kg/ha) was 0.0, the “Preemergence herbicidal rating ECHCG” value ([13]; rate 0.0625 kg/ha) was 0.5 and the “Preemergence herbicidal rating ECHCG” value ([13]; rate 0.1250 kg/ha) was 2.0. For the same compound, the “Preemergence herbicidal rating ECHCG” value ([13]; rate 0.2500 kg/ha) was 6.0 and the “Preemergence herbicidal rating ECHCG” value ([13]; rate 0.5000 kg/ha) was 9.0.

From US20020137929A1, “1 - (3-heterocyclylphenyl) isothiourea, -isourea, -guanidine and -amidine herbicidal agents” (Intellectual Property Department, BASF Aktiengesellschaft, priority 1998, published 2002)
